Laboratory results: PubChem BioAssay AID1963435 (Molecular Pharmacology Branch, DTP, NCI, 2024)

Test system: PANC-1 complex spheroid growth, percent test/control
Assay: Anticancer human tumor PANC-1 cell line growth inhibition [Asc];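 also: spheroids exposed to agents for 7 days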;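 as to viability, T/C: percent viability relative to DMSO vehicle wells taken as 100%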
Settings: for IC50: curve of first compound; for viability, T/C: stronger effect = lower value
Method in brief: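 Tumor cells were grown as multicellular spheroids with stromal HUVEC and mesenchymal stem cells and treated singly or in combination. Concentrations fell in half-log steps from the clinical Cmax, or from 10 microM where none was known.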

[1] = second compound 0.00316 µM, first compound 0.0316 µM
[2] = second compound 0.00316 µM, first compound 0.1 µM
[3] = second compound 0.00316 µM, first compound 0.316 µM
[4] = second compound 0.00316 µM, first compound 1 µM
[5] = second compound 0.00316 µM, first compound 3.16 µM
[6] = second compound 0.00316 µM, first compound 10 µM
[7] = second compound 0.01 µM, first compound 0.0316 µM
[8] = second compound 0.01 µM, first compound 0.1 µM
[9] = second compound 0.01 µM, first compound 0.316 µM
[10] = second compound 0.01 µM, first compound 1 µM
[11] = second compound 0.01 µM, first compound 3.16 µM
[12] = second compound 0.01 µM, first compound 10 µM
[13] = second compound 0.0316 µM, first compound 0.0316 µM
[14] = second compound 0.0316 µM, first compound 0.1 µM
[15] = second compound 0.0316 µM, first compound 0.316 µM
[16] = second compound 0.0316 µM, first compound 1 µM
[17] = second compound 0.0316 µM, first compound 3.16 µM
[18] = second compound 0.0316 µM, first compound 10 µM
[19] = second compound 0.1 µM, first compound 0.0316 µM
[20] = second compound 0.1 µM, first compound 0.1 µM
[21] = second compound 0.1 µM, first compound 0.316 µM
[22] = second compound 0.1 µM, first compound 1 µM
[23] = second compound 0.1 µM, first compound 3.16 µM
[24] = second compound 0.1 µM, first compound 10 µM
[25] = second compound 0.316 µM, first compound 0.0316 µM
[26] = second compound 0.316 µM, first compound 0.1 µM
[27] = second compound 0.316 µM, first compound 0.316 µM
[28] = second compound 0.316 µM, first compound 1 µM
[29] = second compound 0.316 µM, first compound 3.16 µM
[30] = second compound 0.316 µM, first compound 10 µM
[31] = second compound 1 µM, first compound 0.0316 µM
[32] = second compound 1 µM, first compound 0.1 µM
[33] = second compound 1 µM, first compound 0.316 µM
[34] = second compound 1 µM, first compound 1 µM
[35] = second compound 1 µM, first compound 3.16 µM
[36] = second compound 1 µM, first compound 10 µM
[37] = second compound 0.00316 µM, first compound 0.00949 µM
[38] = second compound 0.00316 µM, first compound 0.03 µM
[39] = second compound 0.00316 µM, first compound 0.0949 µM
[40] = second compound 0.00316 µM, first compound 0.3 µM
[41] = second compound 0.00316 µM, first compound 0.949 µM
[42] = second compound 0.00316 µM, first compound 3 µM
[43] = second compound 0.01 µM, first compound 0.00949 µM
[44] = second compound 0.01 µM, first compound 0.03 µM
[45] = second compound 0.01 µM, first compound 0.0949 µM
[46] = second compound 0.01 µM, first compound 0.3 µM
[47] = second compound 0.01 µM, first compound 0.949 µM
[48] = second compound 0.01 µM, first compound 3 µM
[49] = second compound 0.0316 µM, first compound 0.00949 µM
[50] = second compound 0.0316 µM, first compound 0.03 µM
[51] = second compound 0.0316 µM, first compound 0.0949 µM
[52] = second compound 0.0316 µM, first compound 0.3 µM
[53] = second compound 0.0316 µM, first compound 0.949 µM
[54] = second compound 0.0316 µM, first compound 3 µM
[55] = second compound 0.1 µM, first compound 0.00949 µM
[56] = second compound 0.1 µM, first compound 0.03 µM
[57] = second compound 0.1 µM, first compound 0.0949 µM
[58] = second compound 0.1 µM, first compound 0.3 µM
[59] = second compound 0.1 µM, first compound 0.949 µM
[60] = second compound 0.1 µM, first compound 3 µM
[61] = second compound 0.316 µM, first compound 0.00949 µM
[62] = second compound 0.316 µM, first compound 0.03 µM
[63] = second compound 0.316 µM, first compound 0.0949 µM
[64] = second compound 0.316 µM, first compound 0.3 µM
[65] = second compound 0.316 µM, first compound 0.949 µM
[66] = second compound 0.316 µM, first compound 3 µM
[67] = second compound 1 µM, first compound 0.00949 µM
[68] = second compound 1 µM, first compound 0.03 µM
[69] = second compound 1 µM, first compound 0.0949 µM
[70] = second compound 1 µM, first compound 0.3 µM
[71] = second compound 1 µM, first compound 0.949 µM
[72] = second compound 1 µM, first compound 3 µM

C#Cc1c(F)ccc2cc(O)cc(-c3ncc4c(N5CC6CCC(C5)N6)nc(OCC56CCCN5CC(F)C6)nc4c3F)c12 (stereo not drawn) + CNC(C)C(=O)NC1CN(S(=O)(=O)c2cccc(S(=O)(=O)N3CCC4CCC(C(=O)NC(c5ccccc5)c5ccccc5)N4C(=O)C(NC(=O)C(C)NC)C3)c2)CCC2CCC(C(=O)NC(c3ccccc3)c3ccccc3)N2C1=O
IC50 (second compound 0.00316 µM): > 10 µM
IC50 (second compound 0.01 µM): > 10 µM
IC50 (second compound 0.0316 µM): > 10 µM
IC50 (second compound 0.1 µM): > 10 µM
IC50 (second compound 0.316 µM): > 10 µM
IC50 (second compound 1 µM): > 10 µM
viability, T/C [1]: 93.3%
viability, T/C [2]: 85.7%
viability, T/C [3]: 88%
viability, T/C [4]: 85.6%
viability, T/C [5]: 91%
viability, T/C [6]: 78%
viability, T/C [7]: 91.6%
viability, T/C [8]: 81.9%
viability, T/C [9]: 89.2%
viability, T/C [10]: 76.4%
viability, T/C [11]: 86.5%
viability, T/C [12]: 78.7%
viability, T/C [13]: 88.9%
viability, T/C [14]: 77.8%
viability, T/C [15]: 76.6%
viability, T/C [16]: 82%
viability, T/C [17]: 79.7%
viability, T/C [18]: 70.1%
viability, T/C [19]: 90.8%
viability, T/C [20]: 85.2%
viability, T/C [21]: 85.6%
viability, T/C [22]: 73.7%
viability, T/C [23]: 78.8%
viability, T/C [24]: 75.4%
viability, T/C [25]: 83%
viability, T/C [26]: 81.8%
viability, T/C [27]: 77.1%
viability, T/C [28]: 76.4%
viability, T/C [29]: 79.6%
viability, T/C [30]: 70.3%
viability, T/C [31]: 90.1%
viability, T/C [32]: 82.2%
viability, T/C [33]: 77.1%
viability, T/C [34]: 80.4%
viability, T/C [35]: 77.8%
viability, T/C [36]: 69.2%

C=C(F)C(=O)N1CCN(c2nc(OCC3CCCN3C)nc3c2CCN(c2cccc4cccc(Cl)c24)C3)CC1CC#N (stereo not drawn) + CNC(C)C(=O)NC1CN(S(=O)(=O)c2cccc(S(=O)(=O)N3CCC4CCC(C(=O)NC(c5ccccc5)c5ccccc5)N4C(=O)C(NC(=O)C(C)NC)C3)c2)CCC2CCC(C(=O)NC(c3ccccc3)c3ccccc3)N2C1=O
IC50 (second compound 0.00316 µM): 5.52 µM
IC50 (second compound 0.01 µM): 5.29 µM
IC50 (second compound 0.0316 µM): 5.31 µM
IC50 (second compound 0.1 µM): 5.4 µM
IC50 (second compound 0.316 µM): 2.64 µM
IC50 (second compound 1 µM): 4.05 µM
viability, T/C [1]: 99.5%
viability, T/C [2]: 99.1%
viability, T/C [3]: 101%
viability, T/C [4]: 92.4%
viability, T/C [5]: 91.6%
viability, T/C [6]: 5.56%
viability, T/C [7]: 95.6%
viability, T/C [8]: 92.4%
viability, T/C [9]: 92.4%
viability, T/C [10]: 100%
viability, T/C [11]: 85.1%
viability, T/C [12]: 6.24%
viability, T/C [13]: 88.1%
viability, T/C [14]: 86.8%
viability, T/C [15]: 107%
viability, T/C [16]: 91.8%
viability, T/C [17]: 86.8%
viability, T/C [18]: 5.07%
viability, T/C [19]: 90.5%
viability, T/C [20]: 102%
viability, T/C [21]: 90.3%
viability, T/C [22]: 99.3%
viability, T/C [23]: 87.6%
viability, T/C [24]: 6.55%
viability, T/C [25]: 89.2%
viability, T/C [26]: 92.4%
viability, T/C [27]: 96.2%
viability, T/C [28]: 95.1%
viability, T/C [29]: 41.9%
viability, T/C [30]: 4.83%
viability, T/C [31]: 84.8%
viability, T/C [32]: 91.3%
viability, T/C [33]: 93.4%
viability, T/C [34]: 95.4%
viability, T/C [35]: 63.1%
viability, T/C [36]: 2.3%

CCN1C(C(=O)NC23CCC(C(=O)O)(CC2)CC3)C(c2cccc(Cl)c2F)C2(C(=O)Nc3cc(Cl)ccc32)C12CCCCC2 (stereo not drawn) + CNC(C)C(=O)NC1CN(S(=O)(=O)c2cccc(S(=O)(=O)N3CCC4CCC(C(=O)NC(c5ccccc5)c5ccccc5)N4C(=O)C(NC(=O)C(C)NC)C3)c2)CCC2CCC(C(=O)NC(c3ccccc3)c3ccccc3)N2C1=O
IC50 (second compound 0.00316 µM): > 3 µM
IC50 (second compound 0.01 µM): > 3 µM
IC50 (second compound 0.0316 µM): > 3 µM
IC50 (second compound 0.1 µM): > 3 µM
IC50 (second compound 0.316 µM): > 3 µM
IC50 (second compound 1 µM): > 3 µM
viability, T/C [37]: 103%
viability, T/C [38]: 97.6%
viability, T/C [39]: 101%
viability, T/C [40]: 103%
viability, T/C [41]: 113%
viability, T/C [42]: 124%
viability, T/C [43]: 109%
viability, T/C [44]: 92.5%
viability, T/C [45]: 98.2%
viability, T/C [46]: 97.2%
viability, T/C [47]: 106%
viability, T/C [48]: 126%
viability, T/C [49]: 97.2%
viability, T/C [50]: 99.6%
viability, T/C [51]: 101%
viability, T/C [52]: 95.8%
viability, T/C [53]: 104%
viability, T/C [54]: 125%
viability, T/C [55]: 97.5%
viability, T/C [56]: 99.3%
viability, T/C [57]: 96.7%
viability, T/C [58]: 109%
viability, T/C [59]: 105%
viability, T/C [60]: 121%
viability, T/C [61]: 99.2%
viability, T/C [62]: 102%
viability, T/C [63]: 106%
viability, T/C [64]: 92.6%
viability, T/C [65]: 103%
viability, T/C [66]: 108%
viability, T/C [67]: 96.9%
viability, T/C [68]: 103%
viability, T/C [69]: 98%
viability, T/C [70]: 101%
viability, T/C [71]: 116%
viability, T/C [72]: 107%

Cc1nc(N2CCC3(CC2)COC(C)C3N)c(CO)nc1Sc1ccnc(N)c1Cl (stereo not drawn) + CNC(C)C(=O)NC1CN(S(=O)(=O)c2cccc(S(=O)(=O)N3CCC4CCC(C(=O)NC(c5ccccc5)c5ccccc5)N4C(=O)C(NC(=O)C(C)NC)C3)c2)CCC2CCC(C(=O)NC(c3ccccc3)c3ccccc3)N2C1=O
IC50 (second compound 0.00316 µM): > 3 µM
IC50 (second compound 0.01 µM): > 3 µM
IC50 (second compound 0.0316 µM): > 3 µM
IC50 (second compound 0.1 µM): > 3 µM
IC50 (second compound 0.316 µM): > 3 µM
IC50 (second compound 1 µM): > 3 µM
viability, T/C [37]: 94.8%
viability, T/C [38]: 85%
viability, T/C [39]: 96.7%
viability, T/C [40]: 84.3%
viability, T/C [41]: 87.7%
viability, T/C [42]: 87.1%
viability, T/C [43]: 91.1%
viability, T/C [44]: 82.6%
viability, T/C [45]: 79.7%
viability, T/C [46]: 89.4%
viability, T/C [47]: 85.8%
viability, T/C [48]: 95.1%
viability, T/C [49]: 93.4%
viability, T/C [50]: 79.9%
viability, T/C [51]: 92.8%
viability, T/C [52]: 86.3%
viability, T/C [53]: 87.6%
viability, T/C [54]: 78.9%
viability, T/C [55]: 85.3%
viability, T/C [56]: 93%
viability, T/C [57]: 90%
viability, T/C [58]: 83.8%
viability, T/C [59]: 90.9%
viability, T/C [60]: 89.5%
viability, T/C [61]: 89.5%
viability, T/C [62]: 84.1%
viability, T/C [63]: 86.7%
viability, T/C [64]: 84.4%
viability, T/C [65]: 83.4%
viability, T/C [66]: 81.2%
viability, T/C [67]: 86.5%
viability, T/C [68]: 89.8%
viability, T/C [69]: 82.6%
viability, T/C [70]: 82.7%
viability, T/C [71]: 75.6%
viability, T/C [72]: 85.9%
